In publication PMC12456999, “Sulfonyl Homoserine Lactones Are Tunable Probes to Inhibit the Quorum Sensing Receptor RhlR and Reduce Swarming Motility in Pseudomonas aeruginosa” (ACS Infectious Diseases, 2025):
Where two headings read alike, the source gives them in different places.

Assays:
[1] = tested on: P. aeruginosa PAO1; assay: Swarming motility assay; assay type: cell-based, Pseudomonas aeruginosa; conditions: PAO1 + DMSO = 100%, PAO1 ΔrhlR + vehicle = 0%; for reduction in swarming activity relative to the controls: compound at 500 μM
Text: We next evaluated the ability of the four sulfonyl HLs 39, 43, 59, and 75 capable of inhibiting RhlR in the P. aeruginosa reporter to reduce swarming motility in a wild-type P. aeruginosa strain (PAO1). Swarming is a rapid, group-coordinated movement of a bacterial population across a semisolid surface, linked to increased expression of virulence factors and increased antibiotic resistance and regulated in P. aeruginosa, at least in part, by the Rhl system. The results of these phenotypic assays are shown in Figure (see Methods for protocol). The swarming ability of PAO1 in the presence of vehicle (DMSO) served as a positive control (set to 100%). As a key negative control, we examined the swarming ability of a PAO1 ΔrhlR mutant in the presence of the vehicle and observed […] relative to the positive control (set to 0%).
5 Swarming motility assay data in P. aeruginosa. […] Area of the colony after 42 h incubation was used to calculate swarming activity (see Methods). Positive control = PAO1 treated with vehicle (DMSO, 100%). Negative control = PAO1 ΔrhlR treated with vehicle (0%). Error bars = standard deviation of the means of triplicate samples. (B) Representative images of P. aeruginosa swarming on agar plates used to generate data in panel A.
The motility assay was based in part on a previously reported procedure. P. aeruginosa PAO1 was grown overnight with 500 or 250 μM compound, or vehicle (DMSO), at 37 °C and normalized to OD600 = 0.4. Cells were washed with sterile water twice and resuspended with 500 (39, 43, and 59) or 250 (75) μM fresh compound or vehicle (DMSO), in M8 minimal medium. Cells (5 μL) were spotted in the center of agar plates (100 mm diameter) generated from M8 minimal medium + 1 mM MgSO4 + 0.2% glucose + 0.5% Casamino acids + 0.5% agar. Plates were covered and the cells were grown for 24–48 h at 37 °C prior to imaging (using an iPhone 14 camera). Photographs were analyzed using ImageJ to calculate the area of the swarm and normalized to the area of (P. aeruginosa PAO1 + vehicle) – (P. aeruginosa PDO111 (ΔrhlR) + vehicle).

[2] = biological target: T1, RhlR (Pseudomonas aeruginosa, UniProt P54292); assay: E. coli (JLD271) RhlR reporter antagonism assay, in competition with BHL; assay type: cell-based; conditions: for max. RhlR inhibition (%): BHL at 10 μM set to 0%, media control set to 100%
T1 construct: expressed in transfected cells; host or cells: E. coli JLD271 (K-12 ΔlacX74 sdiA271::Cam) carrying pJN105-R2 (RhlR expression) and pSC11-rhlI (rhlI'-lacZ reporter)
Method: To start, the sulfonyl HLs were evaluated for their ability to antagonize RhlR using a previously described E. coli strain (JLD271) harboring a RhlR expression plasmid and a rhlI reporter plasmid. This E. coli reporter produces RhlR, and protein activity in the presence of an added small molecule can be measured via the production of β-galactosidase as quantified via luminescence (see Methods). Compounds were screened in competition against RhlR’s native ligand, BHL (at its EC50 value in this strain, 10 μM), over a range of concentrations to generate antagonism dose–response curves (see Supporting Information) and calculate IC50 values (listed in Table ). A small set of compounds was also screened for RhlR agonism in the E. coli reporter; the agonism assay format was identical to the antagonism assay, except no BHL was added.
RhlR activity in E. coli strain JLD271 (ΔsdiA) was measured via a β-galactosidase reporter (rhI-lacZ) using the Promega Beta-Glo Assay System as previously described. RhlR activity in P. aeruginosa PA14 (ΔrhlIΔlasI) was measured via a GFP reporter (rhlA-gfp). […] See Supporting Information for both reporter protocols.
Supporting Information — Aguirre-Figueroa et al.
E. coli and P. aeruginosa RhlR reporter assay protocols.
E. coli RhlR reporter assay. RhlR activity in E. coli strain JLD271 (ΔsdiA) was measured via a β-galactosidase reporter using the Promega Beta-Glo® Assay System as previously described.10 A schematic of the reporter plasmids and assay protocol is shown in Scheme S1. Briefly, a single colony of E. coli JLD271 harboring the RhlR expression plasmid pJN105-R and the rhlI-lacZ transcriptional fusion reporter pSC11-R (Table S1) was grown in LB medium with 100 μg/mL ampicillin and 10 μg/mL gentamicin overnight (~16 h). The culture was diluted 1:10 in fresh LB medium and grown to an OD600 = 0.25 (0.23–0.28) (~0.5 h). Arabinose was added to a final concentration of 4 mg/mL to induce the expression of pJN105-R. Aliquots (2 μL) of compound DMSO stock solution or serial dilution were added to the inner wells (i.e., non-periphery rows) of a 96-well microtiter plate. To six inner wells, DMSO alone (vehicle) was added as a negative control. For agonism assays, BHL was added to six inner wells as a positive control (to achieve 1 mM). For antagonism assays, BHL was added to six inner wells as a positive control and to all of the other sample wells except for the vehicle control wells (to achieve 10 μM ). Subculture (198 μL) was then dispensed into each inner well. To the outer (periphery) wells, 200 μL of water were added to maintain humidity during incubation. Plates were then incubated for 4 h (shaking) at 37 °C.
Scheme S1. Schematic of E. coli reporter plasmids and assay. (A) Representation of plasmids used in the heterologous reporter system. (B) General reporter assay workflow. BioRender used in […]
After the incubation period, the OD600 of each well was measured using a plate reader. Cell dilution plates were prepared by transferring 10 μL from the incubated culture plate wells to a fresh 96-well plate and adding 90 μL of 18 MΩ water to each well. Next, 10 μL aliquots of diluted Beta-Glo® reagent (1:2 with 18 MΩ water) were added to each well of a white 384-well microtiter plate, followed by 10 μL of culture from each well of the dilution plate. The 384-well plate was incubated (without shaking; i.e., static) for 30 min at 30 °C. After incubation, luminescence of each well was measured using a plate reader. To determine levels of RhlR activity, raw luminescence was divided by OD600 to correct for growth variation and then normalized to the negative (0%) and positive (100%) control wells.
Dose-response reporter assay data for compounds in the E. coli RhlR reporter.
Dose-response curves for RhlR antagonism by compounds against 10 μM BHL using the E. coli JLD271 RhlR reporter are provided below. Compound names are indicated on the x-axis of each plot.
All assays performed in triplicate as at least three separate biological replicates. […]

[3] = tested on: bacterial growth; assay: Effect on bacterial growth (OD600 over time); assay type: cell-based; conditions: at >2 mM concentrations
Method: All new compounds were fully characterized for purity and identity (see Supporting Information). […] The remaining compounds had no effect on growth over the concentration range tested. All compounds were tested in bacteriological assays in triplicate and in at least three separate trials using unique cultures. IC50 and EC50 values in reporter assays were calculated using GraphPad Prism software (version 9.0) with a variable slope sigmoidal curve fit.

[4] = IC50, E. coli JLD271 RhlR reporter, against 10 μM BHL

T1 sequence (P54292 whole entry): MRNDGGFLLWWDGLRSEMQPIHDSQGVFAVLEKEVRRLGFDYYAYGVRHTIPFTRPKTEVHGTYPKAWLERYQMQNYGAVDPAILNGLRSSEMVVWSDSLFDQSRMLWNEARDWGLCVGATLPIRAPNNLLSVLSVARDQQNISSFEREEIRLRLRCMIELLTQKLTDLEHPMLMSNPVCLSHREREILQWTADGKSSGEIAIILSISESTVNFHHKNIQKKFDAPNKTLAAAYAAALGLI

| Structure (SMILES) | reduction in swarming activity relative to the controls [1] | fold more potent than 4-bromo BSHL (35) ([2]; E. coli RhlR reporter IC50) | max. RhlR inhibition (%) ([2]; E. coli RhlR reporter) | IC50 [2, 4] | effect on bacterial growth [3] | potency gain ([2]; 33 vs 16, 43 vs 24, 86 vs 45, E. coli RhlR reporter IC50) | fold lower IC50 value than 3-Cl BSHL (28) ([2]; E. coli RhlR reporter IC50) | reduction in swarming ([1]; compound at 250 μM) | IC50 ([2]; E. coli JLD271 RhlR reporter, against 10 μM BHL) | IC50 ([2]; read-out: inhibitory potency on average (74, 75 and 18), average over the C4, C5 and C6 ASHLs, E. coli RhlR reporter) |
| --- | --- | --- | --- | --- | --- | --- | --- | --- | --- | --- |
| O=C1OCC[C@@H]1NS(=O)(=O)c1cccc(Br)c1 [Compound 39, 3-bromo BSHL] | 60% | ~6 fold | 90% | 29.9 µM | modest effect on bacterial growth | – | – | – | – | – |
| O=C1OCC[C@@H]1NS(=O)(=O)c1ccc(Cl)c(Cl)c1 [Compound 43, 3,4-di-Cl BSHL] | 60% | – | 99% | 54.3 µM | modest effect on bacterial growth | ≤ 40 fold | over 2 fold | – | – | – |
| O=C1OCC[C@@H]1NS(=O)(=O)c1ccc(F)c(F)c1 [Compound 59, 3,4-di-F BSHL] | 60% | – | 87% | 87.8 µM | – | – | – | – | – | – |
| CCCCCS(=O)(=O)N[C@H]1CCOC1=O [Compound 75, C5 ASHL] | – | – | 84% | – | – | – | – | 30% | 20.6 µM | ~28 µM |
